Where a SMILES comes first, the peptide text is derived from it. [ ]: non-standard residue; d: D form. Trp(4-Cl)(βS-Me) = C[C@@H](c1c[nH]c2cccc(Cl)c12)[C@H](N)C(=O)O; Bip(4'-COOH) = N[C@@H](Cc1ccc(-c2ccc(C(=O)O)cc2)cc1)C(=O)O; 1Nal(3S-Me) = C[C@@H](c1cccc2ccccc12)[C@H](N)C(=O)O; Ala(pyrimidin-5-yl) = N[C@@H](Cc1cncnc1)C(=O)O; Phe(4-COOH) = N[C@@H](Cc1ccc(C(=O)O)cc1)C(=O)O; Trp(7-aza) = N[C@@H](Cc1c[nH]c2ncccc12)C(=O)O; h3Pal(5-CN) = N#Cc1cncc(CC[C@H](N)C(=O)O)c1; Pro(4R-NH2) = N[C@H]1CN[C@H](C(=O)O)C1; 1Nal = N[C@@H](Cc1cccc2ccccc12)C(=O)O; Ala(4-THP) = N[C@@H](CC1CCOCC1)C(=O)O; hTyr = N[C@@H](CCc1ccc(O)cc1)C(=O)O; dDab = NCC[C@@H](N)C(=O)O; dNMeA = CN[C@H](C)C(=O)O; Dap = NC[C@H](N)C(=O)O; Aib = CC(C)(N)C(=O)O
The compounds below were run against T1, Recombinant human IL-1β (Homo sapiens, UniProt P01584) (assay: IL-6 assay in MRC5 cells: inhibition of IL-1β induced IL-6 secretion (AlphaLISA)). Conditions: inhibition of IL-1β induced IL-6 secretion in MRC5 cells; IL-1β pre-incubated 1 hour with compound; read-out: MRC5 IC50.
T1 construct: purchased BioLegend 579404
T1 sequence (P01584 117-269): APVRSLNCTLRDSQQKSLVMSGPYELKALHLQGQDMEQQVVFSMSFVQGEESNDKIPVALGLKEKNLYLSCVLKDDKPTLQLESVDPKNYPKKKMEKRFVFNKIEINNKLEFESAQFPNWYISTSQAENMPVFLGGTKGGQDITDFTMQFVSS
Assay type: cell-based
Protocol: Procedure for IL-6 Assay in MRC5 Cells
The inhibition of IL-1β induced IL-6 secretion was evaluated in MRC5 cells. Recombinant human IL-1β (BioLegend 579404) at 2×EC80 concentration was prepared in seeding medium, EMEM (ATCC 30-2003) with 0.025% BSA (Sigma A9576), 1× penicillin/streptomycin (Gibco 15070-063), 1×NEAA (Gibco 11140-050), 1× GlutaMax (Gibco 35050-061), and 1× sodium pyruvate (Gibco 11360-070). 20 μL of IL-1β was added to a 384-well collagen-coated plate (Corning 354664) and pre-incubated at ambient temperature for 1 hour with 200 nL of compound dispensed using an ECHO 555 liquid handler. Human lung fibroblast MRC5 cells (ATCC CCL-171) were added at a density of 3000 cells/20 μL per well. The cells were prepared by passaging three times in growth medium, EMEM (ATCC 30-2003) with 10% fetal bovine serum (Gibco 16140-071), 1× penicillin/streptomycin (Gibco 15070-063), 1×NEAA (Gibco 11140-050), 1× GlutaMax (Gibco 35050-061), and 1× sodium pyruvate (Gibco 11360-070) in collagen-coated T175 flasks (Greiner 661950) and harvested in seeding medium after 5 minutes of 0.25% trypsin-EDTA (Gibco 25200-056) digestion. The 384-well collagen-coated plate, containing a final volume of 40 μL, was incubated at 37° C., 5% CO2 overnight. 5 μL of the conditioned medium was transferred to a 384-well AlphaLISA plate (PerkinElmer 6005350) for detection of IL-6 using the human AlphaLISA IL-6 kit (PerkinElmer AL223F) as per the manufacturer's protocol. 20 μL of the acceptor bead/biotinylated antibody mix was added to the 384-well AlphaLISA plate and incubated for 1 hour at ambient temperature. The donor bead mix was protected from light and 25 μL was added to the plate and incubated for 30 minutes at ambient temperature. The AlphaLISA plate was read on an EnVision multimode plate reader (Perkin Elmer model 2104) using the AlphaScreen setting (laser exc at 680 nm and emis at 570 nm). Dose response curves and IC50 values were analyzed using a 4-parameter logistic equation in Spotfire software (Tibco, Palo Alto, CA).

Structure (SMILES) | IC50
C[C@@H]1C(=O)NCC(=O)N[C@@H](Cc2ccc(-c3ccc(C(=O)O)cc3)cc2)C(=O)N[C@@H](CC2CCOCC2)C(=O)N[C@@H](CN)C(=O)N[C@H](C)C(=O)N[C@@H](CCc2cncc(C#N)c2)C(=O)N[C@@H](Cc2ccc(-c3ccc(C(=O)O)cc3)cc2)C(=O)N[C@@H](Cc2c[nH]c3ccccc23)C(=O)N[C@@H](Cc2ccc(C(=O)O)cc2)C(=O)NCC(=O)N2C[C@H](N)C[C@H]2C(=O)N[C@@H]([C@@H](C)c2cccc3ccccc23)C(=O)N[C@@H](CC(=O)O)C(=O)N1C [Example 23] (cyclo([Bip(4'-COOH)]W[Phe(4-COOH)]G[Pro(4R-NH2)][1Nal(3S-Me)]D[dNMeA]G[Bip(4'-COOH)][Ala(4-THP)][Dap][dA][h3Pal(5-CN)])) | 0.0112 nM
C[C@@H]1C(=O)NCC(=O)N[C@@H](Cc2ccc(-c3ccc(C(=O)O)cc3)cc2)C(=O)N[C@@H](CC2CCOCC2)C(=O)N[C@@H](CN)C(=O)N[C@H](C)C(=O)N[C@@H](CCc2ccc(O)cc2)C(=O)N[C@@H](Cc2ccc(-c3ccc(C(=O)O)cc3)cc2)C(=O)N[C@@H](Cc2c[nH]c3ccccc23)C(=O)N[C@@H](Cc2ccc(C(=O)O)cc2)C(=O)NCC(=O)N2C[C@H](N)C[C@H]2C(=O)N[C@@H]([C@@H](C)c2cccc3ccccc23)C(=O)N[C@@H](CC(=O)O)C(=O)N1C [Example 24] (cyclo([Bip(4'-COOH)]W[Phe(4-COOH)]G[Pro(4R-NH2)][1Nal(3S-Me)]D[dNMeA]G[Bip(4'-COOH)][Ala(4-THP)][Dap][dA][hTyr])) | 0.0291 nM
CC(C)C[C@@H]1NC(=O)[C@H](CCCCN)NC(=O)[C@H](Cc2ccc(-c3ccc(C(=O)O)cc3)cc2)NC(=O)CNC(=O)[C@@H](C)N(C)C(=O)[C@H](CC(=O)O)NC(=O)[C@H]([C@@H](C)c2cccc3ccccc23)NC(=O)[C@@H]2C[C@@H](N)CN2C(=O)CNC(=O)[C@H](Cc2ccc(C(=O)O)cc2)NC(=O)[C@H](Cc2c[nH]c3ccccc23)NC(=O)[C@H](Cc2ccc(-c3ccc(C(=O)O)cc3)cc2)NC(=O)[C@H](CCc2ccc(O)cc2)NC(=O)[C@@H](CO)NC1=O [Example 26] (cyclo([Bip(4'-COOH)]W[Phe(4-COOH)]G[Pro(4R-NH2)][1Nal(3S-Me)]D[dNMeA]G[Bip(4'-COOH)]KL[dS][hTyr])) | 0.0688 nM
C[C@@H]1C(=O)NCC(=O)N[C@@H](Cc2ccc(-c3ccc(C(=O)O)cc3)cc2)C(=O)N[C@@H](Cc2cncnc2)C(=O)N[C@@H](CN)C(=O)N[C@H](C)C(=O)N[C@@H](CCc2cncc(C#N)c2)C(=O)N[C@@H](Cc2ccc(-c3ccc(C(=O)O)cc3)cc2)C(=O)N[C@@H](Cc2c[nH]c3ccccc23)C(=O)N[C@@H](Cc2ccc(C(=O)O)cc2)C(=O)NCC(=O)N2C[C@H](N)C[C@H]2C(=O)N[C@@H]([C@@H](C)c2cccc3ccccc23)C(=O)N[C@@H](CC(=O)O)C(=O)N1C [Example 27] (cyclo([Bip(4'-COOH)]W[Phe(4-COOH)]G[Pro(4R-NH2)][1Nal(3S-Me)]D[dNMeA]G[Bip(4'-COOH)][Ala(pyrimidin-5-yl)][Dap][dA][h3Pal(5-CN)])) | 0.017 nM
C[C@@H]1C(=O)NCC(=O)N[C@@H](Cc2ccc(-c3ccc(C(=O)O)cc3)cc2)C(=O)N[C@@H](Cc2cncnc2)C(=O)N[C@@H](CN)C(=O)N[C@H](C)C(=O)N[C@@H](CCc2ccc(O)cc2)C(=O)N[C@@H](Cc2ccc(-c3ccc(C(=O)O)cc3)cc2)C(=O)N[C@@H](Cc2c[nH]c3ccccc23)C(=O)N[C@@H](Cc2ccc(C(=O)O)cc2)C(=O)NCC(=O)N2C[C@H](N)C[C@H]2C(=O)N[C@@H]([C@@H](C)c2cccc3ccccc23)C(=O)N[C@@H](CC(=O)O)C(=O)N1C [Example 28] (cyclo([Bip(4'-COOH)]W[Phe(4-COOH)]G[Pro(4R-NH2)][1Nal(3S-Me)]D[dNMeA]G[Bip(4'-COOH)][Ala(pyrimidin-5-yl)][Dap][dA][hTyr])) | 0.0393 nM
C[C@@H]1C(=O)NCC(=O)N[C@@H](Cc2ccc(-c3ccc(C(=O)O)cc3)cc2)C(=O)N[C@@H](Cc2c[nH]c3ccccc23)C(=O)N[C@@H](CN)C(=O)N[C@H](C)C(=O)N[C@@H](CCc2cncc(C#N)c2)C(=O)N[C@@H](Cc2ccc(-c3ccc(C(=O)O)cc3)cc2)C(=O)N[C@@H](Cc2c[nH]c3ccccc23)C(=O)N[C@@H](Cc2ccc(C(=O)O)cc2)C(=O)NCC(=O)N2C[C@H](N)C[C@H]2C(=O)N[C@@H]([C@@H](C)c2cccc3ccccc23)C(=O)N[C@@H](CC(=O)O)C(=O)N1C [Example 30] (cyclo([Bip(4'-COOH)]W[Phe(4-COOH)]G[Pro(4R-NH2)][1Nal(3S-Me)]D[dNMeA]G[Bip(4'-COOH)]W[Dap][dA][h3Pal(5-CN)])) | 0.0185 nM

Second part, the compound after the results:

IC50 | Structure (SMILES)
0.0542 nM | CC(C)C[C@@H]1NC(=O)[C@H](CCCCN)NC(=O)[C@H](Cc2ccc(-c3ccc(C(=O)O)cc3)cc2)NC(=O)CNC(=O)[C@@H](C)N(C)C(=O)[C@H](CC(=O)O)NC(=O)[C@H]([C@@H](C)c2cccc3ccccc23)NC(=O)[C@@H]2C[C@@H](N)CN2C(=O)CNC(=O)[C@H](Cc2ccc(C(=O)O)cc2)NC(=O)[C@H](Cc2c[nH]c3ccccc23)NC(=O)[C@H](Cc2ccc(-c3ccc(C(=O)O)cc3)cc2)NC(=O)[C@H](CCc2ccc(O)cc2)NC(=O)[C@@H](C)NC1=O [Example 25] (cyclo([Bip(4'-COOH)]W[Phe(4-COOH)]G[Pro(4R-NH2)][1Nal(3S-Me)]D[dNMeA]G[Bip(4'-COOH)]KL[dA][hTyr]))
0.0205 nM | C[C@@H]1C(=O)NCC(=O)N[C@@H](Cc2ccc(-c3ccc(C(=O)O)cc3)cc2)C(=O)N[C@@H](Cc2c[nH]c3ncccc23)C(=O)N[C@@H](CN)C(=O)N[C@H](C)C(=O)N[C@@H](CCc2ccc(O)cc2)C(=O)N[C@@H](Cc2ccc(-c3ccc(C(=O)O)cc3)cc2)C(=O)N[C@@H](Cc2c[nH]c3ccccc23)C(=O)N[C@@H](Cc2ccc(C(=O)O)cc2)C(=O)NCC(=O)N2C[C@H](N)C[C@H]2C(=O)N[C@@H]([C@@H](C)c2cccc3ccccc23)C(=O)N[C@@H](CC(=O)O)C(=O)N1C [Example 29] (cyclo([Bip(4'-COOH)]W[Phe(4-COOH)]G[Pro(4R-NH2)][1Nal(3S-Me)]D[dNMeA]G[Bip(4'-COOH)][Trp(7-aza)][Dap][dA][hTyr]))
0.0208 nM | C[C@@H]1C(=O)NCC(=O)N[C@@H](Cc2ccc(-c3ccc(C(=O)O)cc3)cc2)C(=O)N[C@@H](Cc2c[nH]c3ccccc23)C(=O)N[C@@H](CN)C(=O)N[C@H](C)C(=O)N[C@@H](CCc2ccc(O)cc2)C(=O)N[C@@H](Cc2ccc(-c3ccc(C(=O)O)cc3)cc2)C(=O)N[C@@H](Cc2c[nH]c3ccccc23)C(=O)N[C@@H](Cc2ccc(C(=O)O)cc2)C(=O)NCC(=O)N2C[C@H](N)C[C@H]2C(=O)N[C@@H]([C@@H](C)c2cccc3ccccc23)C(=O)N[C@@H](CC(=O)O)C(=O)N1C [Example 31] (cyclo([Bip(4'-COOH)]W[Phe(4-COOH)]G[Pro(4R-NH2)][1Nal(3S-Me)]D[dNMeA]G[Bip(4'-COOH)]W[Dap][dA][hTyr]))
0.033 nM | C[C@@H]1C(=O)NCC(=O)N[C@@H](Cc2ccc(-c3ccc(C(=O)O)cc3)cc2)C(=O)N[C@@H](Cc2c[nH]c3ccccc23)C(=O)NCC(=O)N[C@H](CCN)C(=O)N[C@@H](CCc2ccc(O)cc2)C(=O)N[C@@H](Cc2ccc(-c3ccc(C(=O)O)cc3)cc2)C(=O)N[C@@H](Cc2c[nH]c3ccccc23)C(=O)N[C@@H](Cc2ccc(C(=O)O)cc2)C(=O)NCC(=O)N2C[C@H](N)C[C@H]2C(=O)N[C@@H]([C@@H](C)c2cccc3ccccc23)C(=O)N[C@@H](CC(=O)O)C(=O)N1C [Example 32] (cyclo([Bip(4'-COOH)]W[Phe(4-COOH)]G[Pro(4R-NH2)][1Nal(3S-Me)]D[dNMeA]G[Bip(4'-COOH)]WG[dDab][hTyr]))
0.544 nM | CC(C)C[C@@H]1NC(=O)[C@H](Cc2cccc3ccccc23)NC(=O)[C@H](Cc2ccc(-c3ccc(C(=O)O)cc3)cc2)NC(=O)CNC(=O)[C@@H](C)N(C)C(=O)[C@H](C)NC(=O)[C@H]([C@@H](C)c2c[nH]c3cccc(Cl)c23)NC(=O)[C@@H]2C[C@@H](N)CN2C(=O)CNC(=O)[C@H](Cc2ccc(C(=O)O)cc2)NC(=O)[C@H](Cc2c[nH]c3ccccc23)NC(=O)[C@H](Cc2ccc(-c3ccc(C(=O)O)cc3)cc2)NC(=O)CNC(=O)C(C)(C)NC1=O [Example 33] (cyclo([Bip(4'-COOH)]W[Phe(4-COOH)]G[Pro(4R-NH2)][Trp(4-Cl)(βS-Me)]A[dNMeA]G[Bip(4'-COOH)][1Nal]L[Aib]G))
